The test system of assay [1] is AChE. The experiment in a line: ELISA, binding of biotinylated-Aβ40 to immobilised AChE. Set-up: species or system human. An excerpt:
(§1) Most of the material used was purchased as we previously reported. Nitrocellulose membranes, PBS, ATP, recombinant human AChE (C1682, UniProt accession ID: C9JD78), streptavidin‐conjugated horseradish peroxidase (HRP) conjugate, Ponceau S solution, PMSF, and HS sodium salt from bovine kidney were purchased from Sigma‐Aldrich (St. Louis, MO, USA). Mouse IgG isotype control (mIgG), ultra 3,3′,5,5′‐tetramethylbenzidine (TMB)‐ELISA substrate solution, Halt Protease and Phosphatase Inhibitor Cocktail, HN polyclonal antibody (rabbit, PA1‐41610), and Nunc MaxiSorpTM 96‐well flat bottom plates were from Thermo Fisher (Waltham, MA, USA). […]
(§2) ELISAs were carried out as we previously reported. […] TBST was then used to wash the wells 4× before proceeding in one of two ways: (a) biotinylated samples were analyzed by adding 100 µL streptavidin–HRP conjugate in TBST (1 : 2500 dilution) to the samples followed by incubation for 3 h at RT on a shaker, or (b) samples without biotin were analyzed by adding 100 µL TBST containing the primary antibody as per the manufacturer's recommendation, incubating for 3 h at RT on a shaker, followed by washing the wells 4× with TBST. […] The reaction was stopped with 100 µL 2 M H2SO4 after incubating at RT for 0.5–15 min, resulting in a yellow color change, measured by absorbance at 450 nm. […] Statistical analysis was determined by the […]
In general terms: ELISA stands for enzyme-linked immunosorbent assay.

Assay [2] deals with AChE. As to the kind of experiment: ELISA, binding of biotinylated-Aβ42 to immobilised AChE. Also on record: species or system human.
Text: as §1, §2

[3] abbreviates: AChE 10 nM on wells, biotinylated-Aβ 1 μM, increasing HS, three independent assays, Fig. 2C.

For the molecule `Nc1ncnc2c1ncn2[C@@H]1O[C@H](COP(=O)(O)OP(=O)(O)OP(=O)(O)O)[C@@H](O)[C@H]1O` [ATP, Adenosine triphosphate], in the assay on AChE [1] (200 μM ATP, 30 min preincubation RT, pH 7.5, 10 mM MgCl2, three experiments in triplicate, Fig. 3A), the “effect of ATP on affinity of AChE to Aβ40” value was “reduced the affinity”. The “effect of ATP on affinity of AChE to Aβ42” value in the assay with AChE [2] (200 μM ATP, 30 min preincubation RT, pH 7.5, 10 mM MgCl2, three experiments in triplicate, Fig. 3B) is “reduced the affinity”.
In the case of heparan sulfate [HS], the “effect of HS on binding of Aβ40 to AChE” value in the assay with AChE [1] (setting [3]) was “No effects”. For the same molecule, the “effect of HS on binding of Aβ42 to AChE” value in the assay on AChE [2] (setting [3]) is reported as “No effects”.

The values above are taken from PMC7714071, “Interaction of amyloid beta with humanin and acetylcholinesterase is modulated by ATP” (FEBS Open Bio, 2020).
